From ChEMBL document CHEMBL1201862, “PubChem BioAssay data set” (2004)
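Each compound was tested at five concentrations against cells in 96-well plates for 48 hours. GI50 is the concentration that inhibits growth by half.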 Calls of active or inactive are those of the source. Rule as the data show it: active = GI50 up to about 1.1 µM and inactive = higher.

Experiments:
Assay in all cases: NCI-60 cell line screen, 48 h
Hs-578T = system: Hs-578T
DLD-1 = system: DLD-1
DMS-273 = system: DMS-273
KM-20L2 = system: KM-20L2
LXFL 529 = system: LXFL 529
XF498 = system: XF498
DMS-114 = system: DMS-114
HOP-18 = system: HOP-18
RXF 631 = system: RXF 631

`CC12CC(=O)C3C(CCC4=CC(=O)CCC43C)C1CC=C2CC(=O)O` (stereo not given) was tested, and the GI50 (Hs-578T) was > 100 µM (inactive).
With `Cc1cc2c(SCc3ccccc3Cl)nc(N)nc2nc1C` the GI50 (Hs-578T) was 36.3 µM (inactive).
`Nc1nc(-c2cccs2)cs1` was tested, and the GI50 (Hs-578T) was 37.9 µM (inactive).
`CCCC(=O)NC1CCc2cc(OC)c(OC)c(OC)c2-c2ccc(OC)c(=O)cc21` (stereo not given) was tested, and the GI50 (Hs-578T) was 0.000237 µM (active).
With `O=[N+]([O-])c1ccc(C2c3c(O)nc(S)nc3Oc3nc(S)nc(O)c32)cc1` the GI50 (Hs-578T) was > 100 µM (inactive).
`O=C(CC(O)(C(F)(F)F)C(F)(F)F)C(CCCl)C(O)(C(F)(F)F)C(F)(F)F` (stereo not given) was tested, and the GI50 (Hs-578T) was 67.6 µM (inactive).
In the case of `CC1=C(O)C(=O)C2C(=O)C1C(C)C2c1ccc(C)cc1` (stereo not given), the GI50 (DLD-1) is reported as > 100 µM (inactive), the GI50 (DMS-273) is reported as > 100 µM (inactive) and the GI50 (KM-20L2) is reported as 3.06 µM (inactive). The GI50 (LXFL 529) was > 100 µM (inactive) and the GI50 (XF498) was > 100 µM (inactive).
For `Cc1c(OCc2cccc3ccccc23)ccc2c(=O)cc(SCCN3CCOCC3)oc12`, the GI50 (Hs-578T) was > 100 µM (inactive).
`Cc1cn2c(C)csc2c1P(=O)(OC(C)C)OC(C)C` was tested, and the GI50 (Hs-578T) was > 100 µM (inactive).
With `Cn1c(=O)c2c(nc(Nc3ccc(Cl)cc3)n3c(=O)n(-c4ccccc4)c(=O)n23)n(C)c1=O` the GI50 (Hs-578T) was > 100 µM (inactive).
For `C[C@]12CC[C@H](OC(=O)Nc3ccccc3)CC1=CC[C@@H]1C2CC[C@]2(C)/C(=N/OC(=O)Nc3ccccc3)CCC12` (stereo not given in full), the GI50 (DMS-114) was 2.71 µM (inactive), the GI50 (DMS-273) was 37.3 µM (inactive) and the GI50 (HOP-18) was 2.4 µM (inactive). For the same molecule, the GI50 (KM-20L2) was 3.2 µM (inactive), the GI50 (LXFL 529) was 1.12 µM (inactive) and the GI50 (RXF 631) was 6.37 µM (inactive). The GI50 (XF498) was 1.75 µM (inactive).
For `COCCCNC(=O)C1C(=O)C(=O)N(CCCOC)C1=O` (stereo not given), the GI50 (DLD-1) was > 100 µM (inactive), the GI50 (DMS-114) was > 100 µM (inactive) and the GI50 (DMS-273) was > 100 µM (inactive). For the same molecule, the GI50 (HOP-18) was > 100 µM (inactive), the GI50 (KM-20L2) was > 100 µM (inactive) and the GI50 (LXFL 529) was > 100 µM (inactive). For the same molecule, the GI50 (RXF 631) was > 100 µM (inactive).
With `O=C1NC(N2CCOCC2)=N/C1=C\c1ccc(O)cc1` the GI50 (Hs-578T) was 4.84 µM (inactive).
For `Cc1nc(-n2nc(-c3ccccc3)cc2-c2ccccc2)sc1C(/C=C/c1ccc([N+](=O)[O-])cc1)=N/NC(=O)c1ccncc1`, the GI50 (DLD-1) was 11.6 µM (inactive), the GI50 (DMS-114) was 13.9 µM (inactive) and the GI50 (KM-20L2) was 19.4 µM (inactive). The GI50 (LXFL 529) was 12.7 µM (inactive).
For `O=C1N/C(=N/N=C/c2ccccc2)N/C1=C\c1c[nH]c2ccccc12`, the GI50 (Hs-578T) was > 100 µM (inactive).
With `COc1cc2c(cc1O)C(=O)O[C@@H]1CC=C3CCN(C)[C@H]3[C@H]21` the GI50 (Hs-578T) was > 25 µM (inactive).
`CCc1cccc(C(C)C)c1NC(=O)CC1Sc2ccccc2NC1=O` (stereo not given) was tested, and the GI50 (DLD-1) was 47.4 µM (inactive), the GI50 (DMS-114) was 44.1 µM (inactive) and the GI50 (DMS-273) was 34 µM (inactive). For the same molecule, the GI50 (HOP-18) was > 100 µM (inactive), the GI50 (LXFL 529) was 43.5 µM (inactive) and the GI50 (XF498) was 53.6 µM (inactive).
For `COc1ccc2c(c1)[n+]([O-])c(-c1nc3ccccc3s1)c(N)[n+]2[O-]`, the GI50 (DLD-1) was 69.2 µM (inactive), the GI50 (DMS-273) was > 100 µM (inactive) and the GI50 (HOP-18) was > 100 µM (inactive). The GI50 (KM-20L2) was > 100 µM (inactive), the GI50 (LXFL 529) was 58.1 µM (inactive) and the GI50 (RXF 631) was 88.5 µM (inactive).
For `CC(=O)NC1C(Sc2ncn(C3OC(CO)C(O)C(O)C3NC(C)=O)n2)OC(CO)C(O)C1O` (stereo not given), the GI50 (Hs-578T) was > 100 µM (inactive).
For `COc1cc(/C=C2\CCC(C)C3C2=NN(C(C)=O)C3c2cc(OC)c(OC)c(OC)c2)cc(OC)c1OC` (stereo not given), the GI50 (Hs-578T) was 45.8 µM (inactive).
For `CCOC(=O)c1cc(/C=C/C(C)=C/C(=O)OC)oc1C`, the GI50 (DLD-1) was > 100 µM (inactive), the GI50 (DMS-114) was > 100 µM (inactive) and the GI50 (KM-20L2) was > 100 µM (inactive). For the same molecule, the GI50 (LXFL 529) was > 100 µM (inactive) and the GI50 (XF498) was > 100 µM (inactive).
With `C=C=C(C(=O)OC)[S+]([O-])c1ccccc1[N+](=O)[O-]` (stereo not given) the GI50 (DMS-114) was > 100 µM (inactive), the GI50 (DMS-273) was > 100 µM (inactive) and the GI50 (HOP-18) was > 100 µM (inactive). For the same molecule, the GI50 (KM-20L2) was > 100 µM (inactive), the GI50 (LXFL 529) was > 100 µM (inactive) and the GI50 (XF498) was > 100 µM (inactive).
For `CCCCCCc1cc2cc(C(=O)Nc3ccc(F)cc3)c(=N)oc2cc1O`, the GI50 (Hs-578T) was 0.9 µM (active).
For `CCOC(=O)/C(=C\c1cccc(C)c1)C(C)=O`, the GI50 (Hs-578T) was 20.7 µM (inactive).
With `CC(=O)CCCCO` the GI50 (DMS-114) was > 100 µM (inactive), the GI50 (DMS-273) was > 100 µM (inactive) and the GI50 (LXFL 529) was > 100 µM (inactive). The GI50 (XF498) was > 100 µM (inactive).
In the case of `CCCCC1c2c([nH]c3ccccc23)C2C(=O)N(c3ccc(OC)cc3)C(=O)C2C1CCC` (stereo not given), the GI50 (Hs-578T) is reported as 1.87 µM (inactive).
With `CC(=O)NC(CCCCN(Cc1ccccc1)C(=O)N(C)N=O)C(=O)NCc1ccccc1` (stereo not given) the GI50 (DLD-1) was > 100 µM (inactive), the GI50 (DMS-114) was 43.6 µM (inactive) and the GI50 (DMS-273) was 97.3 µM (inactive). For the same molecule, the GI50 (KM-20L2) was > 100 µM (inactive), the GI50 (LXFL 529) was 51.5 µM (inactive) and the GI50 (RXF 631) was > 100 µM (inactive). For the same molecule, the GI50 (XF498) was > 100 µM (inactive).
`CNCCCNC(=S)Cn1cc(C)c(=O)[nH]c1=O` was tested, and the GI50 (Hs-578T) was > 35.1 µM (inactive).
